{"source": "paper PMC6008299", "about": "“Impact of race on dose selection of molecular-targeted agents in early-phase oncology trials” (British Journal of Cancer, 2018)", "assay_type_in_all_cases": "in vivo, human", "key": {"tumour [18F]-FDG uptake": {"tested_on": "tumour [18F]-FDG uptake", "assay": "[18F]-FDG-PET metabolic response, Japanese (Asian) patients", "details": "day 4", "description": "(§1) In both studies, the PK profile of DS-7423 was characterised during cycle 1 on days 1 and 8. For PD analysis, glucose, C-peptide, and Akt phosphorylation were measured in platelet-rich plasma collected at predose, 1, 2, 4, 6, and 24 h after dosing on days 1 and 15. Tumour assessment was performed every two cycles using Response Evaluation Criteria in Solid Tumours (RECIST) version 1.1 in both studies. 18F-Fluoro-2-deoxy-D-glucose positron emission tomography ([18F]-FDG) was performed as an exploratory endpoint at baseline and on day 4.[10]"}, "[1]": {"assay": "Pharmacokinetics, both studies", "excerpt": "In both studies, the PK profile of DS-7423 was characterised during cycle 1 on days 1 and 8. […] The data cut-off for the primary analysis occurred after all patients had either discontinued the study or completed 6 months of study drug treatment. Descriptive statistics were provided for selected demographic, safety, PK, and PD data by dose and time as appropriate. Descriptive statistics on continuous data included means, medians, standard deviations, and ranges, while categorical data were summarised using frequency counts and percentages. No inferential analysis to compare dose levels was performed due to limited sample sizes. The WinNonlin software was used for PK analysis."}, "[2]": {"assay": "Pharmacokinetics in Japanese cohort (J102)", "description": "as §1\nThe data cut-off for the primary analysis occurred after all patients had either discontinued the study or completed 6 months of study drug treatment. Descriptive statistics were provided for selected demographic, safety, PK, and PD data by dose and time as appropriate. Descriptive statistics on continuous data included means, medians, standard deviations, and ranges, while categorical data were summarised using frequency counts and percentages. No inferential analysis to compare dose levels was performed due to limited sample sizes. The WinNonlin software was used for PK analysis."}, "[3]": {"details": "dose level 4, Japanese cohort (n = 3)"}, "[4]": {"details": "dose level 8, Japanese cohort (n = 3)"}, "[5]": {"details": "dose level 16, Japanese cohort (n = 2)"}, "[6]": {"details": "dose level 160, Japanese cohort (n = 3)"}, "[7]": {"details": "dose level 240, Japanese cohort (n = 5)"}}}
{"smiles": "CC(=O)N1CCN(c2nc3c(N4CCOCC4)nc(-c4cnc(N)nc4)nc3n2CC(F)(F)F)C[C@H]1C", "note": "[DS-7423]", "values": [{"measurement": "Patients with partial metabolic response ([18F]-FDG-PET)", "setting": "tumour [18F]-FDG uptake", "value": 36.4, "unit": "%"}, {"measurement": "Patients with partial metabolic response ([18F]-FDG-PET)", "setting": "tumour [18F]-FDG uptake; of 11 patients", "value": 4}, {"measurement": "median half-life", "setting": "[1]; 240-mg dose (MTD)", "value": 12, "unit": "h"}, {"measurement": "Difference in AUC and Cmax between the two populations", "setting": "[1]; MTD of 240 mg, Caucasian vs Asian", "value": "no significant differences"}, {"measurement": "median time to peak concentration (Tmax)", "setting": "[1]; across dose groups", "value": "2 to 4", "unit": "h"}, {"measurement": "Drug accumulation", "setting": "[1]; predose concentrations days 15 and 21 of cycle 1 and day 1 of cycle 2", "value": "no remarkable drug accumulation"}, {"measurement": "Mean AUCtau", "setting": "[2]; [3]", "value": 31.1, "unit": "ng·h/mL"}, {"measurement": "Mean Cmax", "setting": "[2]; [3]", "value": 3, "unit": "ng/mL"}, {"measurement": "T1/2", "setting": "[2]; [3]", "value": "6 to 7", "unit": "h"}, {"measurement": "Tmax", "setting": "[2]; [3]", "value": "2 to 4", "unit": "h"}, {"measurement": "Mean AUCtau", "setting": "[2]; [4]", "value": 84.2, "unit": "ng·h/mL"}, {"measurement": "Mean Cmax", "setting": "[2]; [4]", "value": 10, "unit": "ng/mL"}, {"measurement": "T1/2", "setting": "[2]; [4]", "value": "6 to 7", "unit": "h"}, {"measurement": "Tmax", "setting": "[2]; [4]", "value": "2 to 4", "unit": "h"}, {"measurement": "Mean AUCtau", "setting": "[2]; [5]", "value": 178, "unit": "ng·h/mL"}, {"measurement": "Mean Cmax", "setting": "[2]; [5]", "value": 18, "unit": "ng/mL"}, {"measurement": "T1/2", "setting": "[2]; [5]", "value": "6 to 7", "unit": "h"}, {"measurement": "Tmax", "setting": "[2]; [5]", "value": "2 to 4", "unit": "h"}, {"measurement": "Mean AUCtau", "setting": "[2]; [6]", "value": 1223.3, "unit": "ng·h/mL"}, {"measurement": "Mean Cmax", "setting": "[2]; [6]", "value": 61, "unit": "ng/mL"}, {"measurement": "T1/2", "setting": "[2]; [6]", "value": "6 to 7", "unit": "h"}, {"measurement": "Tmax", "setting": "[2]; [6]", "value": "2 to 4", "unit": "h"}, {"measurement": "Mean AUCtau", "setting": "[2]; [7]", "value": 1184.8, "unit": "ng·h/mL"}, {"measurement": "Mean Cmax", "setting": "[2]; [7]", "value": 83.6, "unit": "ng/mL"}, {"measurement": "T1/2", "setting": "[2]; [7]", "value": 12, "unit": "h"}, {"measurement": "Tmax", "setting": "[2]; [7]", "value": "2 to 4", "unit": "h"}]}
